{"source": "patent US8871807B2", "about": "“Detergents capable of cleaning, bleaching, sanitizing and/or disinfecting textiles including sulfoperoxycarboxylic acids” (Ecolab USA Inc., priority 2008, dated 2014)", "key": {"B. subtilis": {"system": "B. subtilis", "assay": "Sporicidal efficacy at 14 days, EN 13704", "format": "cell-based", "details": "30 ppm peroxyoctanoic acid alone; spore species not specified", "procedure": "The test method followed was according to European Standard EN 13704: Quantitative Suspension Test for the Evaluation of Sporicidal Activity of Chemical Disinfectants and Antiseptics Used in Food, Industrial, Domestic and Institutional Areas. Generally, a test suspension of bacterial spores in a solution of interfering substance, simulating clean conditions, was added to a prepared sample of the test formulation diluted in hard water. The mixture was maintained at the specific temperature and time desired. At this contact time, an aliquot is taken; the sporicidal action in this portion was immediately neutralized or suppressed by a validated method. The number of surviving bacterial spores in each sample was determined and the reduction in viable counts was calculated. A test was run to determine the stability and sporicidal efficacy of a composition of the present invention against spores. The composition tested included the sulfonated peroleic acid product, and an amount of peroxyoctanoic acid. The test method used was the European Standard EN 13704: Quantitative Suspension Test for the Evaluation of Sporicidal Activity of Chemical Disinfectants and Antiseptics Used in Food, Industrial, Domestic and Institutional Areas, described above."}, "Mycobacterium bovis BCG": {"system": "Mycobacterium bovis BCG", "format": "cell-based", "details": "300 ppm POOA, pH 6.5, room temperature"}, "[1]": {"assay": "Stability of sulfonated peracids in aqueous solution, half time", "format": "physicochemical", "procedure": "A study was performed to determine the stability of various sulfonated peracids in aqueous solutions. The sulfonated peracids were compared under the same controlled conditions to determine how the structural differences of the selected peracids impacted stability. The sulfonated peracids studied included both mid-chain sulfonated and terminally sulfonated peracids.\nEach peracid was tested at a concentration of 50 ppm under ambient conditions. Each individual solution was prepared from the corresponding peracid concentrate by adding it to a 0.05 M pH 5.0 citrate buffer, and adjusting the final solution pH to 5.0 with the addition of a small amount of caustic.\nThe peracid concentration over time was measured using a kinetic iodometric titration method. For comparison, 50 ppm peroxyacetic acid (POAA), at the same concentration and under the same conditions, was also included in the stability study. Based on the results seen in FIG. 7, the half time of each individual peracid was estimated and the results are summarized in the table below."}, "Contact angle study": {"assay": "Contact angle study", "format": "physicochemical", "details": "concentrate diluted 250 times with DI water (11-SPOUA 85 times)", "procedure": "A study was performed to measure the wetting properties of various sulfonated peracids in aqueous solutions, by measuring the contact angle of the individual solution on different surfaces.\nA FTA32 Contact Angle Goniometer with image processing by FTA 32 software was used to measure the contact angle. The contact angle was measured on both stainless steel, and polypropylene surfaces. The peracid concentrates shown in the table below were diluted 250 times with DI water. However, the 11-SPOUA was diluted 85 times with DI water, given the lower levels of peracid precursor in the formula.\nThe results shown are the average of at least three contact angle measurements."}, "[2]": {"assay": "Coupling ability study, 1-octanoic acid by liquid chromatography", "format": "physicochemical", "details": "for 1-Octanoic acid (ppm) coupled: 0.4 grams 1-octanoic acid added to 20 g peracid solution in hydrogen peroxide, filtered lower phase", "procedure": "A study was performed to determine the coupling/hydrotropic properties of various sulfonated peracids in aqueous solutions. The ability of the selected peracids to couple octanoic acid was measured.\nTwenty grams (20 g) of each peracid solution was diluted into a beaker containing hydrogen peroxide. […] To each of these solutions, 0.4 grams of 1-octanoic acid was added. The octanoic acid initially floated to the tops of the solutions. The solutions were then stirred for 5-10 minutes with magnetic stir bars at 1,000 rpm. The solutions were then centrifuged for 20 minutes at 3,000-5,000 rpm. The lower phase of each solution was then collected. The lower phases were further clarified by filtration through 0.45 micron syringe filters. All of the filtrates appeared clear and homogenous. The filtered solutions were analyzed by liquid chromatography for 1-octaonic acid."}, "[3]": {"details": "pH 4", "from_the_text": "The issue of low solubility when using long chain peracids has been addressed by increasing the pH to above 7. […] Further, bleaching efficacy decreases proportionally with every pH unit increase over about 7."}, "[4]": {"assay": "Storage stability, loss of active oxygen by titrimetry", "format": "physicochemical", "details": "4 weeks", "procedure": "The stability of a sulfoperoxycarboxylic acid of the present invention, i.e., 11-sulfoundecaneperoxoic acid (Compound D), was compared to that of phthalimidoperoxyhexanoic acid (PAP). The stability data for the PAP sample were taken from U.S. Pat. No. 5,994,284, assigned to Clariant GmbH. Samples of the compound of the present invention were stored for four (4) weeks at various temperatures. The loss of active oxygen was measured by titrimetry."}, "[5]": {"assay": "Powder storage stability at elevated temperature", "format": "physicochemical", "details": "about 140° F.", "procedure": "The compositions of the present invention also show enhanced stability compared to conventional peroxygen containing compositions. In some embodiments, the compositions of the present invention are stable for at least about 1 year at room temperature. In some embodiments, the compositions of the present invention are stable at about 100° F. for at least 30 days. In other embodiments, the compositions of the present invention are stable at about 140° F. for at least 30 days. For example, 11-sulfoundecanoic peroxyacid (Compound D) is stable as a powder system at about 140° F. for at least 30 days."}, "[6]": {"details": "4 weeks, data from U.S. Pat. No. 5,994,284, cited from earlier work"}, "[7]": {"details": "stated for comparison; cited from earlier work"}}, "note": "Like-named read-outs stand apart in the source and are kept apart here."}
{"molecule": "CCCCCCCC(=O)OO", "note": "[POOA, peroxyoctanoic acid]", "values": [{"measurement": "reduction of spores", "setting": "B. subtilis", "result": "did not result in a reduction"}, {"measurement": "Log Reduction", "setting": "Mycobacterium bovis BCG; 2.5 min", "result": 3.48}, {"measurement": "Log Reduction", "setting": "Mycobacterium bovis BCG; 5 min", "result": "<4.31"}]}
{"molecule": "O=C(CCCCCS(=O)(=O)O)OO", "note": "[Compound 6-SPOHXA, 6-sulfoperoxyhexanoic acid]", "values": [{"measurement": "half-life at 50 ppm", "setting": "[1]; buffer, pH 5", "result": 88, "unit": "h"}, {"measurement": "Contact Angle (degree), Polypropylene", "setting": "Contact angle study", "result": 84, "unit": "degree"}, {"measurement": "Contact Angle (degree), Stainless Steel", "setting": "Contact angle study", "result": 77, "unit": "degree"}, {"measurement": "1-Octanoic acid (ppm) coupled", "setting": "[2]", "result": 240, "unit": "ppm"}]}
{"molecule": "O=C(CS(=O)(=O)O)OO", "note": "[Compound 2-SPOAA, 2-Sulfoperoxyacetic acid]", "values": [{"measurement": "half-life at 50 ppm", "setting": "[1]; buffer, pH 5", "result": 37, "unit": "h"}, {"measurement": "Contact Angle (degree), Polypropylene", "setting": "Contact angle study", "result": 75, "unit": "degree"}, {"measurement": "Contact Angle (degree), Stainless Steel", "setting": "Contact angle study", "result": 77, "unit": "degree"}, {"measurement": "1-Octanoic acid (ppm) coupled", "setting": "[2]", "result": 160, "unit": "ppm"}]}
{"molecule": "O=C(CCCCCCCCCCS(=O)(=O)O)OO", "note": "[Compound D, 11-sulfoundecaneperoxoic acid]", "values": [{"measurement": "half-life at 50 ppm", "setting": "[1]; buffer, pH 5", "result": 91, "unit": "h"}, {"measurement": "solubility", "setting": "[3]", "result": "about 1.3%"}, {"measurement": "Contact Angle (degree), Polypropylene", "setting": "Contact angle study", "result": 77, "unit": "degree"}, {"measurement": "Contact Angle (degree), Stainless Steel", "setting": "Contact angle study", "result": 72, "unit": "degree"}, {"measurement": "Loss of Active Oxygen (%)", "setting": "[4]; 38 ° C.", "result": 7.9, "unit": "%"}, {"measurement": "Loss of Active Oxygen (%)", "setting": "[4]; 50 ° C.", "result": 15.7, "unit": "%"}, {"measurement": "Loss of Active Oxygen (%)", "setting": "[4]; Room Temp.", "result": 0.78, "unit": "%"}, {"measurement": "stable as a powder system", "setting": "[5]", "result": "at least 30 days"}, {"measurement": "1-Octanoic acid (ppm) coupled", "setting": "[2]", "result": 890, "unit": "ppm"}, {"measurement": "dissolution of peracid solution in hydrogen peroxide", "setting": "[2]; 20 g of peracid solution diluted into hydrogen peroxide", "result": "dissolved only partially"}]}
{"molecule": "O=C(CCCCCN1C(=O)c2ccccc2C1=O)OO", "note": "[PAP, phthalimidoperoxyhexanoic acid]", "values": [{"measurement": "Loss of Active Oxygen (%)", "setting": "[6]; 25 ° C.", "result": 1.4, "unit": "%"}, {"measurement": "Loss of Active Oxygen (%)", "setting": "[6]; 40 ° C.", "result": 2.0, "unit": "%"}, {"measurement": "Loss of Active Oxygen (%)", "setting": "[6]; 50 ° C.", "result": 12.0, "unit": "%"}]}
{"molecule": "CC(=O)OO", "note": "[POAA, peroxyacetic acid]", "values": [{"measurement": "half-life at 50 ppm", "setting": "[1]; 50 ppm peracid, 0.05 M citrate buffer pH 5.0, ambient conditions, read-out: t1/2 (converted)", "result": 115, "unit": "h"}, {"measurement": "percarboxylic acid formation constant (Keq)", "setting": "[7]", "result": 2.70}]}
